Experimental data taken from US20240122930A1, “INTEGRIN INHIBITORS AND USES THEREOF IN COMBINATION WITH OTHER AGENTS” (Pliant Therapeutics, Inc., priority 2022, published 2024).
Read-outs that look alike come from different tables or passages of the source.

Tested on: participants with idiopathic pulmonary fibrosis (IPF)
[1] = 40 mg (n = 22), 12 weeks, listed as Cmpd 5
[2] = 80 mg (n = 23), 12 weeks, listed as Cmpd 5
[3] = 160 mg (n = 22), 12 weeks, listed as Cmpd 5
[4] = 320 mg (n = 22), treatment up to 40 weeks

From the text: The groups were stratified for the use of nintedanib or pirfenidone. The groups were screened 28 days before the Day 1 of the study. At Day 1, baseline values were collected. During week 12, the subjects received the last dose, and the study was ended at week 14. Primary and secondary endpoints of the study included safety, tolerability, and PK. Exploratory endpoints included change in FVC over 12 weeks; High Resolution CT-based Quantitative Lung Fibrosis (QLF) imaging; patient-reported outcome (PRO): VAS-cough severity; and effect on selected biomarkers.
The groups were stratified for the use of nintedanib or pirfenidone. The screening was done 28 days before Day 1 and the baseline was measured on Day 1. The last dose was on Week 12, and the end of study was on Week 14. The primary and secondary endpoints include safety, tolerability, and PK. Exploratory Endpoints include change in Forced Vital Capacity (FVC) over 12 weeks, High Resolution CT-based Quantitative Lung Fibrosis (QLF) imaging, and effect on selected biomarkers.
The groups were stratified for the use of nintedanib or pirfenidone. The groups were screened 28 days before the Day 1 of the study. At Day 1, baseline values were collected. The study was continued up to Week 48. The treatment duration per protocol is at least 24 weeks and at most 48 weeks. For the study, the primary and secondary endpoints evaluated in the trial were safety, tolerability, and pharmacokinetics. The exploratory endpoints evaluated included the change in FVC over 12 and 24 weeks; high Resolution CT-based Quantitative Lung Fibrosis (QLF) imaging; patient-reported cough severity; and effect on selected biomarkers.

For `COCCN(CCCCc1ccc2c(n1)NCCC2)CC[C@H](Nc1ncnc2ccccc12)C(=O)O` [Compound 5, (S)-4-((2-methoxyethyl) (4-(5,6,7,8-tetrahydro-1,8-naphthyridin-2-yl)butyl)amino)-2-(quinazolin-4-ylamino) butanoic acid], the “Any AEs, % of participants” value (40 mg (n = 22), 12 weeks) was “(72.7) %”, the “Any AEs, participants reporting” value (40 mg (n = 22), 12 weeks) was 16 n and the “Serious TEAE” value (40 mg (n = 22), 12 weeks) was 1 n. For the same compound, the “Serious TEAE related to study drug” value (40 mg (n = 22), 12 weeks) was 0 n, the “Serious TEAE, % of participants” value (40 mg (n = 22), 12 weeks) was “(4.5) %” and the “TEAE Diarrhea (any causality), % of participants” value (shortened to “TEAE Diarrhea (any causality), %”) (40 mg (n = 22), 12 weeks) was “(9.1) %”. The “TEAE Diarrhea (any causality), participants reporting” value (40 mg (n = 22), 12 weeks) was 2 n, the “TEAE Diarrhea related to study drug, % of participants” value (40 mg (n = 22), 12 weeks) was “(4.5) %” and the “TEAE Diarrhea related to study drug, participants reporting” value (40 mg (n = 22), 12 weeks) was 1 n. For the same compound, the “TEAE Leading to Death” value (40 mg (n = 22), 12 weeks) was 0 n, the “TEAE Leading to Early Termination from Study” value (40 mg (n = 22), 12 weeks) was 0 n and the “TEAE Leading to Interruption of Study Drug” value (40 mg (n = 22), 12 weeks) was 0 n. The “TEAE Leading to Withdrawal of Study Drug” value (40 mg (n = 22), 12 weeks) was 0 n, the “TEAE of CTCAE Grade 3 or Higher” value (40 mg (n = 22), 12 weeks) was 2 n and the “TEAE of CTCAE Grade 3 or Higher related to study drug” value (40 mg (n = 22), 12 weeks) was 0 n. For the same compound, the “TEAE of CTCAE Grade 3 or Higher, % of participants” value (40 mg (n = 22), 12 weeks) was “(9.1) %”, the “TEAE related to study drug” value (40 mg (n = 22), 12 weeks) was 4 n and the “TEAE related to study drug, % of participants” value (from here on “TEAE related to study drug, %”) (40 mg (n = 22), 12 weeks) was “(18.2) %”. For the same compound, the “TEAE, % of participants” value (40 mg (n = 22), 12 weeks) was “(72.7) %”, the “TEAE, participants reporting” value (40 mg (n = 22), 12 weeks) was 16 n and the “Any AEs, % of participants” value [1] was 72.7%. The “Serious TEAE, % of participants” value [1] was 4.5%, the “TEAE Diarrhea (any causality), %” value [1] was 9.1% and the “TEAE Diarrhea related to study drug, % of participants” value [1] was 4.5%. The “TEAE of CTCAE Grade 3 or Higher, % of participants” value [1] was 9.1%, the “TEAE related to study drug, %” value [1] was 18.2% and the “TEAE, % of participants” value [1] was 72.7%. For the same compound, the “Any AEs, % of participants” value (80 mg (n = 23), 12 weeks) was “(65.2) %”, the “Any AEs, participants reporting” value (80 mg (n = 23), 12 weeks) was 15 n and the “Serious TEAE” value (80 mg (n = 23), 12 weeks) was 0 n. For the same compound, the “Serious TEAE related to study drug” value (80 mg (n = 23), 12 weeks) was 0 n, the “TEAE Diarrhea (any causality), %” value (80 mg (n = 23), 12 weeks) was “(21.7) %” and the “TEAE Diarrhea (any causality), participants reporting” value (80 mg (n = 23), 12 weeks) was 5 n. The “TEAE Diarrhea related to study drug, % of participants” value (80 mg (n = 23), 12 weeks) was “(13.0) %”, the “TEAE Diarrhea related to study drug, participants reporting” value (80 mg (n = 23), 12 weeks) was 3 n and the “TEAE Leading to Death” value (80 mg (n = 23), 12 weeks) was 0 n. For the same compound, the “TEAE Leading to Early Termination from Study” value (80 mg (n = 23), 12 weeks) was 0 n, the “TEAE Leading to Interruption of Study Drug” value (80 mg (n = 23), 12 weeks) was 0 n and the “TEAE Leading to Withdrawal of Study Drug” value (80 mg (n = 23), 12 weeks) was 0 n. For the same compound, the “TEAE of CTCAE Grade 3 or Higher” value (80 mg (n = 23), 12 weeks) was 0 n, the “TEAE of CTCAE Grade 3 or Higher related to study drug” value (80 mg (n = 23), 12 weeks) was 0 n and the “TEAE related to study drug” value (80 mg (n = 23), 12 weeks) was 7 n. For the same compound, the “TEAE related to study drug, %” value (80 mg (n = 23), 12 weeks) was “(30.4) %”, the “TEAE, % of participants” value (80 mg (n = 23), 12 weeks) was “(65.2) %” and the “TEAE, participants reporting” value (80 mg (n = 23), 12 weeks) was 15 n. For the same compound, the “Any AEs, % of participants” value [2] was 65.2%, the “TEAE Diarrhea (any causality), %” value [2] was 21.7% and the “TEAE Diarrhea related to study drug, % of participants” value [2] was 13.0%. For the same compound, the “TEAE related to study drug, %” value [2] was 30.4%, the “TEAE, % of participants” value [2] was 65.2% and the “Any AEs, % of participants” value (160 mg (n = 22), 12 weeks) was “(68.1) %”. For the same compound, the “Any AEs, participants reporting” value (160 mg (n = 22), 12 weeks) was 15 n, the “Serious TEAE” value (160 mg (n = 22), 12 weeks) was 2 n and the “Serious TEAE related to study drug” value (160 mg (n = 22), 12 weeks) was 0 n. The “Serious TEAE, % of participants” value (160 mg (n = 22), 12 weeks) was “(9.1) %”, the “TEAE Diarrhea (any causality), %” value (160 mg (n = 22), 12 weeks) was “(22.7) %” and the “TEAE Diarrhea (any causality), participants reporting” value (160 mg (n = 22), 12 weeks) was 5 n. The “TEAE Diarrhea related to study drug, % of participants” value (160 mg (n = 22), 12 weeks) was “(18.2) %”, the “TEAE Diarrhea related to study drug, participants reporting” value (160 mg (n = 22), 12 weeks) was 4 n and the “TEAE Leading to Death” value (160 mg (n = 22), 12 weeks) was 0 n. For the same compound, the “TEAE Leading to Early Termination from Study” value (160 mg (n = 22), 12 weeks) was 0 n, the “TEAE Leading to Interruption of Study Drug” value (160 mg (n = 22), 12 weeks) was 1 n and the “TEAE Leading to Interruption of Study Drug, % of participants” value (160 mg (n = 22), 12 weeks) was “(4.5) %”. The “TEAE Leading to Withdrawal of Study Drug” value (160 mg (n = 22), 12 weeks) was 0 n, the “TEAE of CTCAE Grade 3 or Higher” value (160 mg (n = 22), 12 weeks) was 2 n and the “TEAE of CTCAE Grade 3 or Higher related to study drug” value (160 mg (n = 22), 12 weeks) was 1 n. For the same compound, the “TEAE of CTCAE Grade 3 or Higher related to study drug, % of participants” value (160 mg (n = 22), 12 weeks) was “(4.5) %”, the “TEAE of CTCAE Grade 3 or Higher, % of participants” value (160 mg (n = 22), 12 weeks) was “(9.1) %” and the “TEAE related to study drug” value (160 mg (n = 22), 12 weeks) was 4 n. For the same compound, the “TEAE related to study drug, %” value (160 mg (n = 22), 12 weeks) was “(18.2) %”, the “TEAE, % of participants” value (160 mg (n = 22), 12 weeks) was “(63.6) %” and the “TEAE, participants reporting” value (160 mg (n = 22), 12 weeks) was 14 n. For the same compound, the “Any AEs, % of participants” value [3] was 68.2%, the “Serious TEAE, % of participants” value [3] was 9.1% and the “TEAE Diarrhea (any causality), %” value [3] was 22.7%. For the same compound, the “TEAE Diarrhea related to study drug, % of participants” value [3] was 18.2%, the “TEAE Leading to Interruption of Study Drug, % of participants” value [3] was 4.5% and the “TEAE of CTCAE Grade 3 or Higher related to study drug, % of participants” value [3] was 4.5%. The “TEAE of CTCAE Grade 3 or Higher, % of participants” value [3] was 9.1%, the “TEAE related to study drug, %” value [3] was 18.2% and the “TEAE, % of participants” value [3] was 63.6%. The “Any AEs, % of participants” value (320 mg (n = 21), 12 weeks) was 85.7%, the “Any AEs, participants reporting” value (320 mg (n = 21), 12 weeks) was 18 n and the “Serious TEAE” value (320 mg (n = 21), 12 weeks) was 1 n. The “Serious TEAE related to study drug” value (320 mg (n = 21), 12 weeks) was 0 n, the “Serious TEAE, % of participants” value (320 mg (n = 21), 12 weeks) was 4.8% and the “TEAE Diarrhea (any causality), %” value (320 mg (n = 21), 12 weeks) was 14.3%. For the same compound, the “TEAE Diarrhea (any causality), participants reporting” value (320 mg (n = 21), 12 weeks) was 3 n, the “TEAE Diarrhea related to study drug, % of participants” value (320 mg (n = 21), 12 weeks) was 9.5% and the “TEAE Diarrhea related to study drug, participants reporting” value (320 mg (n = 21), 12 weeks) was 2 n. The “TEAE Leading to Death” value (320 mg (n = 21), 12 weeks) was 1 n, the “TEAE Leading to Death, % of participants” value (320 mg (n = 21), 12 weeks) was 4.8% and the “TEAE Leading to Early Termination from Study” value (320 mg (n = 21), 12 weeks) was 3 n. The “TEAE Leading to Early Termination from Study, % of participants” value (320 mg (n = 21), 12 weeks) was 14.3%, the “TEAE Leading to Interruption of Study Drug” value (320 mg (n = 21), 12 weeks) was 1 n and the “TEAE Leading to Interruption of Study Drug, % of participants” value (320 mg (n = 21), 12 weeks) was 4.8%. For the same compound, the “TEAE Leading to Withdrawal of Study Drug” value (320 mg (n = 21), 12 weeks) was 3 n, the “TEAE Leading to Withdrawal of Study Drug, % of participants” value (320 mg (n = 21), 12 weeks) was 14.3% and the “TEAE of CTCAE Grade 3 or Higher” value (320 mg (n = 21), 12 weeks) was 2 n. For the same compound, the “TEAE of CTCAE Grade 3 or Higher related to study drug” value (320 mg (n = 21), 12 weeks) was 0 n, the “TEAE of CTCAE Grade 3 or Higher, % of participants” value (320 mg (n = 21), 12 weeks) was 9.5% and the “TEAE related to study drug” value (320 mg (n = 21), 12 weeks) was 4 n. For the same compound, the “TEAE related to study drug, %” value (320 mg (n = 21), 12 weeks) was 19.0%, the “TEAE, % of participants” value (320 mg (n = 21), 12 weeks) was 81.0% and the “TEAE, participants reporting” value (320 mg (n = 21), 12 weeks) was 17 n. For the same compound, the “Serious TEAE” value [4] was 2 n, the “Serious TEAE related to study drug” value [4] was 0 n and the “Serious TEAE, % of participants” value [4] was “(9.1) %”. The “TEAE Cough related to study drug” value [4] was 0 n, the “TEAE Cough, % of participants” value [4] was “(13.6) %” and the “TEAE Cough, participants reporting” value [4] was 3 n. The “TEAE Diarrhea related to study drug” value [4] was 4 n, the “TEAE Diarrhea related to study drug, % of participants” value [4] was “(18.2) %” and the “TEAE Diarrhea, % of participants” value [4] was “(31.8) %”. The “TEAE Diarrhea, participants reporting” value [4] was 7 n, the “TEAE Dyspnoea related to study drug” value [4] was 0 n and the “TEAE Dyspnoea, % of participants” value [4] was “(22.7) %”.
